From US20250288543A1, “METHODS OF ENHANCING BENEFICIAL SHORT-CHAIN AND MEDIUM-CHAIN FATTY ACIDS PRODUCTION BY GUT MICROBIOME” (Arizona Board of Regents on Behalf of Arizona State …, priority 2024, published 2025)

Legend:
[1] = mechanism related to vagal afferent; cited from earlier work
[2] = rat model of diabetes, hexanoate as sole FA source; cited from earlier work
human colon microbiome = experiment: In vitro bioreactors inoculated with human feces: chain elongation of acetate with ethanol or lactate to butyrate and caproate; type: cell-based; conditions: for Methane concentrations: bioreactor headspace, over 7 days, FIG. 4; for Production of MCFAs: pH 6.5 (descending colon), higher concentrations; for SCFA and MCFA production: varied conditions of the large intestine (pH 5.5 and 6.5), FIGS. 6A-6P
Text: In microbial chain elongation, acetate, an abundant short-chain fatty acid in the colon, is elongated via reverse β-oxidation using a more reduced compound, such as ethanol or lactate to butyrate, caproate, and caprylate (C8). FIG. 1 depicts known microbial pathways for production of butyrate in the human colon. FIG. 2 depicts a proposed pathway for production of butyrate (and caproate). In vitro bioreactors were setup using feces composited from multiple human donors. Gas composition in the bioreactors' headspace was analyzed for H2, CO2, and CH4 using gas chromatography (GC). The concentrations of volatile fatty acids (VFAs), lactate, ethanol, were measured using high performance liquid chromatography (HPLC). 16S rRNA gene from Bacteria and Archaea was sequenced using the PacBio. The ability of the human colon microbiome to carry out chain elongation reactions was probed in bioreactor experiments. Bioreactors consisted of 120 mL glass serum bottles containing 50 mL of reduced anaerobic mineral medium prepared using the Hungate technique. The medium contained the following stock solutions per liter: 10 mL of salts, 1 mL of trace element A, 1 mL of trace element B, and 1 mL of vitamin mix. Sodium sulfide nonahydrate (0.2 mM) and L-cysteine (0.4 mM) were used as reducing agents. The medium was buffered with 15 mM 4-(2-hydroxyethyl)-1-piperazineethanesulfonic acid (HEPES) and 15 mM sodium bicarbonate. The medium pH was adjusted to 5.5 or 6.5 using a 10 N NaOH solution. The medium was bottled using a gas composition of 20% CO2 and 80% N2. The experimental conditions and controls are shown in Table 1 and were tested in triplicate. The tested concentrations of short-chain fatty acids (60 mM acetate, 20 mM propionate, 20 mM butyrate) are within the typical range detected in the human colon. For ethanol and lactate (electron donors in chain elongation), we tested 4 mM, a low but physiological relevant concentration and a high concentration of 40 mM. The high concentration of ethanol (40 mM) was selected based on existing chain elongation literature (Yin et al. 2017; Coma et al. 2016; […], and Buisman 2008; Robles et al. 2021; Joshi et al. 2021) and was strategically employed to enhance the activity of putative chain-elongating microorganisms. […] The slurry was prepared by mixing one-part reduced anaerobic mineral medium and one-part feces from a composite sample containing fecal samples from multiple healthy donors as described in the Supporting Information. In one condition, the fecal slurry was filtered through a 200 μm filter before inoculation. In condition with 60 mM acetate+40 mM ethanol+MCE culture at pH 6.5, a chain elongation culture derived from soil (Joshi et al. 2021) was also inoculated. The pH was measured using 0.5 mL samples using an OrionTM Versa Star ProTM Benchtop pH Meter (Thermo Scientific, Waltham, MA, USA) equipped with an Orion economy series pH electrode. The pH meter was calibrated with Orion pH 4.01, 7.00, and 10.01 standard solutions. Samples for HPLC consisted of 0.5 mL of supernatant from bioreactors filtered through a 0.2 μm PDVF filter (MDI Membrane Technologies, Harrisburg, PA, USA). The concentrations of formate, acetate, propionate, isobutyrate, butyrate, isovalerate, valerate, isocaproate, caproate, heptanoate, lactate, ethanol, butanol, and hexanol were determined using a high-performance liquid chromatograph (HPLC, Agilent, Santa Clara, CA, USA) with a photodiode array detector (DAD) set at 210 nm and a refractive index detector (RID). The HPLC was fitted with an Aminex HPX-87H column 300×7.8 mm (Bio-Rad Laboratories, Hercules, CA, USA) and operated with an eluent of 2.5 mM H2SO4 at a flow rate of 0.6 mL per minute for a duration of 80 minutes. The oven temperature was constant at […]. The calibration range for fatty acids was 0.25-10 mM, and the calibration range for the alcohols was 2.5-50 mM. […]

[3] = physiologically relevant concentration of ethanol and lactate, FIGS. 5A and 5B

SMILES | Efficacy in suppressing food intake (rank order) [1] | Methane concentrations (human colon microbiome) | Production of MCFAs (human colon microbiome) | Butyrate production via chain elongation (human colon microbiome; [3]) | SCFA and MCFA production (human colon microbiome) | other results
CC(=O)O [acetate] | butyrate>propionate>acetate |  |  |  |  | 
CCCCCC(=O)O [caproic, caproic acid] |  |  |  |  |  | Contractile function of hearts perfused with glucose alone [2]: normalized contractile function
CCO [ethanol] |  | higher at higher concentrations | significant increase | occurred | successfully increases | Conversion of acetate and ethanol to butyrate and caproate via chain elongation, time of occurrence (human colon microbiome; acetate + ethanol, fecal bioreactors, FIGS. 3A and 3B): within one day; Chain elongation activity with filtered feces (human colon microbiome; acetate + ethanol, feces filtered to remove larger particles, FIGS. 3C and 3D): did not affect the chain elongation activity; Caproate production (human colon microbiome; [3]): caproate was produced only when ethanol was the electron donor
CC(O)C(=O)O (stereo not shown) [lactate] |  | higher at higher concentrations | significant increase | occurred | successfully increases | Metabolites produced with lactate as the electron donor (human colon microbiome; acetate + lactate, FIG. 3B): metabolic shift was observed towards propionate and butyrate production; Production of butyrate and other SCFAs via chain elongation (human colon microbiome; pH 5.5 (ascending colon)): a better substrate
CCC(=O)O [propionate] | butyrate>propionate>acetate |  |  |  |  | 
